# Patent publication EP0102327A2, “Barbituric acid derivatives as anthelmintica” (CIBA-GEIGY AG, priority 1982, dated 1984)
# Assays:
# [1] = test system: Nematoden wie Haemonchus concortus und Trichostrongylus colubriformis; test: Test on sheep infected with nematodes (worm count in the intestine after treatment); type: in vivo, Schafe; settings: nematode-infected sheep, single dose; at each of the doses 20, 10, 5 and 2 mg/kg; necropsy 7-10 days after treatment
# From the text: Beispiel 14: Versuch an mit Nematoden wie Haemonchus concortus und Trichostrongylus colubriformis infizierten Schafen
# Der Wirkstoff wird in Form einer Suspension mit einer Magensonde oder durch Pansen-Injektion Schafen verabreicht, die vorher mit Nematoden wie Haemonchus concortus und Trichostrongylus colubriformis künstlich infiziert wurden. Pro Versuch resp. pro Dosis werden 1 bis 3 Tiere verwendet. Jedes Schaf wird mit nur einer einzigen Dosis behandelt.
# (§1) Eine erste Evaluierung erfolgt dadurch, dass die Anzahl der vor und nach der Behandlung im Kot der Schafe ausgeschiedenen Wurmeier verglichen werden.
# Sieben bis zehn Tage nach der Behandlung werden die Schafe getötet und seziert. Die Auswertung erfolgt durch Auszählung der nach der Behandlung im Darm zurückbleibenden Würmer. Gleichzeitig und gleichartig infizierte aber unbehandelte Schafe dienen als Kontrolle resp. Vergleich.
# Schafe, die mit einer Suspension eines Wirkstoffes aus der Tabelle I behandelt werden, zeigen im Vergleich zu unbehandelten, aber infizierten Vergleichsgruppen einen um mindestens 95 i reduzierten Nematodenbefall. Die Wirkungsdosis beträgt 20, 10, 5 und 2 mg/kg. Mit den Verbindungen Nr. 1, 2, 4, 11, 12 und 13 wird bei jeder der Dosen 100 % Wirkung erzielt.
# Fasciola hepatica = test: Test on sheep infected with Fasciola hepatica (count of liver flukes in the bile ducts after treatment); type: in vivo, Schafe; settings: artificially infected sheep, single dose of suspension by stomach tube or rumen injection; 30 and 20 mg/kg Körpergewicht; necropsy 3-4 weeks after treatment
# From the text: Beispiel 16: Versuch an mit Fasciola hepatica infizierten Schafen
# Der Wirkstoff wird in Form einer Suspension mit einer Magensonde oder durch Pansen-Injektion Schafen verabreicht, die vorher mit Fasciola hepatica künstlich infiziert wurden. Pro Versuch resp. pro Dosis werden 3 Tiere verwendet. Jedes Tier wird mit nur einer einzigen Dosis behandelt.
# as §1
# Drei bis vier Wochen nach der Behandlung werden die Schafe getötet und seziert. Die Auswertung erfolgt durch das Auszählen der nach der Behandlung in den Gallengängen zurückgebliebenen Leberegel. Gleichzeitig und gleichartig infizierte aber unbehandelte Schafe dienen als Kontrolle resp. Vergleich. Der Unterschied der in den beiden Gruppen festgestellten Anzahl von Leberegeln ergibt den Wirkungsgrad des geprüften Wirkstoffs.
# In diesem Versuch zeigen Wirkstoffe aus der Tabelle I bei Dosen von 30 und 20 mg/kg Körpergewicht stets eine mindestens 95%ige Wirksamkeit gegen Fasciola hepatica. Die Verbindungen Nr. 1, 2, 4, 5, 11, 12 und 13 zeigen jeweils vollständige Wirksamkeit (^= Abtötung 100 %).
compound,measurement,setting,value
C=CCN1C(=O)C(C(=O)Nc2c(C)cc(Oc3ccc(C(F)(F)F)cc3)cc2C)C(=O)N(C)C1=O (stereo not shown) [compound 12],Wirkung,[1],100%
same,Wirksamkeit gegen Fasciola hepatica (Abtötung),Fasciola hepatica,100%
CC(C)c1cc(Oc2ccc(C(F)(F)F)cc2)ccc1NC(=O)C1C(=O)N(C)C(=O)N(C)C1=O [compound 1],Wirkung,[1],100%
same,Wirksamkeit gegen Fasciola hepatica (Abtötung),Fasciola hepatica,100%
CC(C)c1cc(Oc2ccc(C(F)(F)F)cc2)ccc1NC(=O)C1C(=O)N(C)C(=O)N(C2CC2)C1=O (stereo not shown) [compound 13],Wirkung,[1],100%
same,Wirksamkeit gegen Fasciola hepatica (Abtötung),Fasciola hepatica,100%
C=CCN1C(=O)C(C(=O)Nc2ccc(Oc3ccc(C(F)(F)F)cc3)cc2C)C(=O)N(C)C1=O (stereo not shown) [compound 5],Wirksamkeit gegen Fasciola hepatica (Abtötung),Fasciola hepatica,100%
Cc1cc(Oc2ccc(C(F)(F)F)cc2)cc(C)c1NC(=O)C1C(=O)N(C)C(=O)N(C2CC2)C1=O (stereo not shown) [compound 11],Wirkung,[1],100%
same,Wirksamkeit gegen Fasciola hepatica (Abtötung),Fasciola hepatica,100%
Cc1cc(Oc2ccc(C(F)(F)F)cc2)ccc1NC(=O)C1C(=O)N(C)C(=O)N(C)C1=O [compound 4],Wirkung,[1],100%
same,Wirksamkeit gegen Fasciola hepatica (Abtötung),Fasciola hepatica,100%
Cc1cc(Oc2ccc(C(F)(F)F)cc2)cc(C)c1NC(=O)C1C(=O)N(C)C(=O)N(C)C1=O [compound 2],Wirkung,[1],100%
same,Wirksamkeit gegen Fasciola hepatica (Abtötung),Fasciola hepatica,100%
